Experimental findings from doi:10.1101/2025.09.23.678079v1 (biorxiv, 2025) are described below.

Converted amounts (≈) assume the structure as drawn.

One data set deals with HPK1 (Homo sapiens, UniProt Q92918). Description: HTRF enzymatic assay. Type of data set: biochemical.
In another data set the test system is human primary T cells. Description: cells. The note with it: T-cell, read-out: IL-2 increase EC50 (nM).
Data set [1] addresses T1, hERG (Homo sapiens, UniProt Q12809, species not given). The experiment in a line: in vitro.
Data set [2] is described as follows: in vitro. The following applies: mouse, hepatocytes.
Another data set has as its target T2, PXR (Homo sapiens, UniProt O75469).
T2 sequence (O75469 1-434): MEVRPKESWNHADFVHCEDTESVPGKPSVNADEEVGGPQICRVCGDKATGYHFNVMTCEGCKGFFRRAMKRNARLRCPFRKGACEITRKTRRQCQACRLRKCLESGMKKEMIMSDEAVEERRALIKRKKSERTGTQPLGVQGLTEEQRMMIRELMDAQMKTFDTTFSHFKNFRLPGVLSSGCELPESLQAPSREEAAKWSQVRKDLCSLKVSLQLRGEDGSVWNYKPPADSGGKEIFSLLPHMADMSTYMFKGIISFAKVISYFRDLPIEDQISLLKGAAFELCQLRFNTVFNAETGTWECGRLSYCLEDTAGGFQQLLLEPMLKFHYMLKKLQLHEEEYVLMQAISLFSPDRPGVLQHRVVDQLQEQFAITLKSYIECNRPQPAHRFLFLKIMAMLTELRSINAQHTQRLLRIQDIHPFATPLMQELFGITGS
Description: in vitro.

Another data set concerns the target CYP2C9 (Homo sapiens, UniProt P11712). Description: in vitro.
Data set [3] in a line: in vitro. The following applies: human, plasma.
Data set [4] is described as follows: in vitro. The following applies: rat, plasma.
A short description of data set [5]: in vitro. The note with it: human, Caco-2.
The target in a further data set is CYP2C19 (Homo sapiens, UniProt P33261). The experiment in a line: in vitro.
Sequence of CYP2C19 (P33261 whole entry): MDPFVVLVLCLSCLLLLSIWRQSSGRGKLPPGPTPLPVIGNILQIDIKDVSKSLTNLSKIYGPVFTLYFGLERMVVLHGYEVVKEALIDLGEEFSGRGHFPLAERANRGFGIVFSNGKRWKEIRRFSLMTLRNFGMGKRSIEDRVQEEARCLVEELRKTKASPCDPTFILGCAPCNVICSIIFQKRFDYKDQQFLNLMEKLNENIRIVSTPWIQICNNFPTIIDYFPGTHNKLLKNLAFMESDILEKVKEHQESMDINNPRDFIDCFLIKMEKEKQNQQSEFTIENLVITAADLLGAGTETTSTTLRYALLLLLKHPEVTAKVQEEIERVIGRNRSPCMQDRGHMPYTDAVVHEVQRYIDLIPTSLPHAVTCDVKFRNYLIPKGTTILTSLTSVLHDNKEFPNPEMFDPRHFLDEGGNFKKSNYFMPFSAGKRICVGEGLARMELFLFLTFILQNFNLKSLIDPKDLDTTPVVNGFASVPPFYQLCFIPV
Data set [6] is described as follows: in vitro. Set-up: species or system CT26. The following applies: human, hepg2 cells.
Data set [7] can be described thus: in vitro. The following applies: dog, hepatocytes.
The next data set can be described thus: physchem. The following applies: aqueous buffer, pH 7.4, aqueous buffer.
Another data set concerns the target CYP2D6 (Homo sapiens, UniProt P10635). The experiment in a line: in vitro.
Data set [8] has as its target T1, hERG. Description: in vitro. This is another data set of the same source.
The target of the next data set is T3, CYP1A2 (Homo sapiens, UniProt P05177).
T3 sequence (P05177 1-516): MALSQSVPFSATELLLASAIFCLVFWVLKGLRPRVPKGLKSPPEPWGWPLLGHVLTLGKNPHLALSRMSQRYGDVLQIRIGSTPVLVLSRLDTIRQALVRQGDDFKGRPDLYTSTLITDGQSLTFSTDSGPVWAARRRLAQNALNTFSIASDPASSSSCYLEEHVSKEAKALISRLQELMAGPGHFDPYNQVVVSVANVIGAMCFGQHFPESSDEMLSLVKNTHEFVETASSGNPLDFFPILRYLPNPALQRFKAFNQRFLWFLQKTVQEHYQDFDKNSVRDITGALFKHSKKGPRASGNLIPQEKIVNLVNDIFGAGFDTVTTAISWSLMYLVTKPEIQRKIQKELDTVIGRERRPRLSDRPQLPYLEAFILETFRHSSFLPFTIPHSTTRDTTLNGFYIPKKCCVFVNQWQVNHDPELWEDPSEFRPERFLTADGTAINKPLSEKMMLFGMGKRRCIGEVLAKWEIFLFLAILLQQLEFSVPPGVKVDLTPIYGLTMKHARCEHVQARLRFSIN
The experiment in a line: in vitro.

The nature of data set [9]: in vitro. The following applies: dog, plasma.
Data set [10] in a line: in vitro. The note with it: rat, hepatocytes.
Data set [11] can be described thus: in vitro. The following applies: human, hepatocytes.
Data set [12] is described as follows: in vitro. The note with it: mouse, ct26 cells. Set-up: species or system HepG2.
Data set [13] is described as follows: in vitro. The following applies: mouse, plasma.

T1 sequence (Q12809 whole entry): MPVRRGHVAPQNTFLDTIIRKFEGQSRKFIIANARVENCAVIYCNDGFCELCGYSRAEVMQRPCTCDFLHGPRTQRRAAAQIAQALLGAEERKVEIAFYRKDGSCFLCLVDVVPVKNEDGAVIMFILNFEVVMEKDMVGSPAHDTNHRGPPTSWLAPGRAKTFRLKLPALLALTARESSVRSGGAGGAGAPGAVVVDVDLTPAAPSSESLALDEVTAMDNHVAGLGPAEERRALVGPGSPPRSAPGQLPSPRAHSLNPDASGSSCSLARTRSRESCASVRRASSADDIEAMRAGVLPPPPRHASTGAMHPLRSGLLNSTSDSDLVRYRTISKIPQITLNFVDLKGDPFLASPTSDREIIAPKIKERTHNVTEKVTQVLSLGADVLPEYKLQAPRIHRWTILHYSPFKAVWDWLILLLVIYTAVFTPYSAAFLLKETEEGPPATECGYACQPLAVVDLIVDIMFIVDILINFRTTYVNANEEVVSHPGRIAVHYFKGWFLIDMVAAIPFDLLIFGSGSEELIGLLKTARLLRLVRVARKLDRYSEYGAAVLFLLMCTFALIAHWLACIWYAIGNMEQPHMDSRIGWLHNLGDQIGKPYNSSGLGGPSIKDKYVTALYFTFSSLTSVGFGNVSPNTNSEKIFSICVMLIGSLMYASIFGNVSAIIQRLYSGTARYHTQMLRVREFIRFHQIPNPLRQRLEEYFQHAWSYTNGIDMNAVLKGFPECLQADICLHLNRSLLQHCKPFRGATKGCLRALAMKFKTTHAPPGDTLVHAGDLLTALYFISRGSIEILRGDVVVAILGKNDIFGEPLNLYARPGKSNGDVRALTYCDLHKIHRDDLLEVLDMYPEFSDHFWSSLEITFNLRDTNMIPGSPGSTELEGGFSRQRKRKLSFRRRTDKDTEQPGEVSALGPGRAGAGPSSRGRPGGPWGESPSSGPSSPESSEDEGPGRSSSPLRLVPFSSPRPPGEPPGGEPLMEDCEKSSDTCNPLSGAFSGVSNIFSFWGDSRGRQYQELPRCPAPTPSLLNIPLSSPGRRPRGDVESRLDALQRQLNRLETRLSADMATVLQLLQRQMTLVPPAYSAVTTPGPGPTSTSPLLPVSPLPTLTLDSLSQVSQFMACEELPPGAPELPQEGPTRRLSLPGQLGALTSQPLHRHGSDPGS
Sequence of HPK1 (Q92918 whole entry): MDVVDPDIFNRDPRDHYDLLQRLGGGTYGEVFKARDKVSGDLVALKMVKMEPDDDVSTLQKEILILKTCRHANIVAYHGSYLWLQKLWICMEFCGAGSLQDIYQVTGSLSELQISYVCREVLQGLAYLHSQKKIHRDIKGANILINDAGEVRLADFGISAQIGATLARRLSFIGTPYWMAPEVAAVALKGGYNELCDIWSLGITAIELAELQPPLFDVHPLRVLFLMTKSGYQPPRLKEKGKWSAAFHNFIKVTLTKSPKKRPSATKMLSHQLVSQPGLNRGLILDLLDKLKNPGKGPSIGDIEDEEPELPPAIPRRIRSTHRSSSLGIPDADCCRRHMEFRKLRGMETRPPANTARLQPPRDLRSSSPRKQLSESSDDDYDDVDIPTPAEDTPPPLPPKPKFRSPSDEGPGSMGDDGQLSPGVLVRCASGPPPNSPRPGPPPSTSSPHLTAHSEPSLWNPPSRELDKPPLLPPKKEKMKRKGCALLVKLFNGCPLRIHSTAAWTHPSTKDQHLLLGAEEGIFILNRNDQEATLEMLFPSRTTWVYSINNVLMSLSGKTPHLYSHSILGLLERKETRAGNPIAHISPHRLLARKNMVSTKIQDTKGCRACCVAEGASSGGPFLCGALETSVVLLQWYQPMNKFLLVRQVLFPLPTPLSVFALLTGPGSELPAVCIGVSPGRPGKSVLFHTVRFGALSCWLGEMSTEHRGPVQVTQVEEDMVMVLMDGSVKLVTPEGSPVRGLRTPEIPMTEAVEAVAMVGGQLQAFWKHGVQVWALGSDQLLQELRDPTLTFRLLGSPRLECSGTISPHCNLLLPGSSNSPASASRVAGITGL
Sequence of CYP2D6 (P10635 whole entry): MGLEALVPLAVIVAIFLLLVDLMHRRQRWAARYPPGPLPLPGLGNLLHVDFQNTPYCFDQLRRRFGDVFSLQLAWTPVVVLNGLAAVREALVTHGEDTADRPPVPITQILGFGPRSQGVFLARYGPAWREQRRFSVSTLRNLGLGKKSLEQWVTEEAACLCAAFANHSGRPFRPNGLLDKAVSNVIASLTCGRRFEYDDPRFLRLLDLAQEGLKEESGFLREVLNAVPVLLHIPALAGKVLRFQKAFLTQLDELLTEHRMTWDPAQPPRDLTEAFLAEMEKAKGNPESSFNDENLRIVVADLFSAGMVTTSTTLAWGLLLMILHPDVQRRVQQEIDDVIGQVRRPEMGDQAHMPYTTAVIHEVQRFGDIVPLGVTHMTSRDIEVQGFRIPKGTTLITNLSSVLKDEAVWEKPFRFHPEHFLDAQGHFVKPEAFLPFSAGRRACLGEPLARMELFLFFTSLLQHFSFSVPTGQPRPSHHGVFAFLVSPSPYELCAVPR
Sequence of CYP2C9 (P11712 whole entry): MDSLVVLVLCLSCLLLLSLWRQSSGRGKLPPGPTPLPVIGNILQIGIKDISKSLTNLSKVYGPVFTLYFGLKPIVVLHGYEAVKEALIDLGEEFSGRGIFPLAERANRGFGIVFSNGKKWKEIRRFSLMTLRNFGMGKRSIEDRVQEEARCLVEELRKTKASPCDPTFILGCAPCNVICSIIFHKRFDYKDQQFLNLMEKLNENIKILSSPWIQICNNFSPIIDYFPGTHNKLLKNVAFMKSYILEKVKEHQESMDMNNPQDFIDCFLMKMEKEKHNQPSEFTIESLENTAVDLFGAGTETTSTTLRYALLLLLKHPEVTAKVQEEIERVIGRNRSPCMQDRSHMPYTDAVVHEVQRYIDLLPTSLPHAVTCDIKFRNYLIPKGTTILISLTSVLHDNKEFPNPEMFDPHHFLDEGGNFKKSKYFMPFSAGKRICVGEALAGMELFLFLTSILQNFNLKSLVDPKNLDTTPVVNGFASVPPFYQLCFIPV

`COc1cccn2c(-c3cc4c(c5c3CCNC5=O)Nc3ccc(N5CCOCC5)cc3C4(C)C)cnc12` [compound 3, Cmpd. 3] gave an IC50 at HPK1 of 9.3 nM.

As for `COc1cccn2c(-c3cc4c(c5c3CNC5=O)Nc3ccc(N5CCOCC5)cc3C4(C)C)cnc12` [compound 4, Cmpd. 4], at HPK1, inhibition was half-maximal at 8.9 nM (IC50).

On to `CO[C@H]1CCCn2c(-c3cc4c(c5c3CNC5=O)Nc3ccc(N5CCOCC5)cc3C4(C)C)cnc21` [compound 6, Cmpd. 6], for which, in the data set with human primary T cells, the 50% effective concentration (EC50) turned out to be 9.5 nM. Also, the inhibition at 10 µM against hERG [1] turned out to be 74.5%; at CYP2C9, 24.5%; at CYP2C19, 53.6%; at CYP2D6, 20.7%; against CYP1A2 it was 9%. The half-life in “in vitro [2]” came out at 161 min; in the data set “in vitro [7]”, 205 min; in the data set “in vitro [10]”, 236 min; in the data set “in vitro [11]” it was 2260 min. Further, the activity at 1 µM at PXR was 2%. The fraction unbound in “in vitro [3]” was 0.046; in “in vitro [4]”, 0.0386; in “in vitro [9]”, 0.0112; in “in vitro [13]”, 0.023. Besides, in “in vitro [5]”, the efflux ratio came out at 2.72. Moreover, the CC50 in “in vitro [6]” is 3.29 µM; in “in vitro [12]” it was 7.8 µM. The amount in solution in the data set “physchem” (solubility) came to 56.3 µM (≈ 28.1 µg/mL). In addition, at hERG [8], the midpoint of inhibition, the IC50, lay at 5.16 µM.
